Legend:
Assay in all cases: relative viability (nuclei count vs DMSO), 5 days (fraction); higher = more cells survive
A-427 = tested on: A-427
Summary of the method: (§1)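 Lung cancer cell lines were seeded in 1536-well plates and dosed by pin tool the next day, with either a single drug or a fixed anchor-drug dose combined with five library-drug doses (not always all listed) spaced in √10 steps. Five days later, one step fixed the cells and stained their nuclei (final 0.05% Triton X-100, 1% formaldehyde, 1 ug/ml Hoechst), and nuclei were counted on 4× images. Relative viability is the nuclei count in treated wells divided by the count in vehicle wells, and each value is the median of duplicate plates.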

COR-L 105 = tested on: COR-L 105
Summary of the method: as §1

ChaGo-K-1 = tested on: ChaGo-K-1
Summary of the method: as §1

EKVX = tested on: EKVX
Summary of the method: as §1

EMC-BAC-2 = tested on: EMC-BAC-2
Summary of the method: as §1

H3255 = tested on: H3255
Summary of the method: as §1

HCC-366 = tested on: HCC-366
Summary of the method: as §1

LK-2 = tested on: LK-2
Summary of the method: as §1

LOU-NH91 = tested on: LOU-NH91
Summary of the method: as §1

NCI-H1563 = tested on: NCI-H1563
Summary of the method: as §1

NCI-H1666 = tested on: NCI-H1666
Summary of the method: as §1

NCI-H1734 = tested on: NCI-H1734
Summary of the method: as §1

NCI-H1755 = tested on: NCI-H1755
Summary of the method: as §1

NCI-H1792 = tested on: NCI-H1792
Summary of the method: as §1

NCI-H1944 = tested on: NCI-H1944
Summary of the method: as §1

NCI-H1975 = tested on: NCI-H1975
Summary of the method: as §1

NCI-H2170 = tested on: NCI-H2170
Summary of the method: as §1

NCI-H23 = tested on: NCI-H23
Summary of the method: as §1

NCI-H441 = tested on: NCI-H441
Summary of the method: as §1

NCI-H520 = tested on: NCI-H520
Summary of the method: as §1

NCI-H596 = tested on: NCI-H596
Summary of the method: as §1

PC-3 [JPC-3] = tested on: PC-3 [JPC-3]
Summary of the method: as §1

SK-MES-1 = tested on: SK-MES-1
Summary of the method: as §1

SW 900 = tested on: SW 900
Summary of the method: as §1

COc1cc(N2CCC(C(N)=O)CC2)ccc1Nc1nc(N)c(Cl)c(Nc2ccccc2S(=O)(=O)C(C)C)n1 [HG-5-88-01] + COc1cccc2cc(-c3nc([C@H]4CC[C@H](C(=O)O)CC4)n4ncnc(N)c34)[nH]c12 [OSI-027] (partner 0.5 µM)
relative viability (A-427; first compound 0.04 µM): 0.441 | relative viability (A-427; first compound 0.1265 µM): 0.533 | relative viability (A-427; first compound 0.4 µM): 0.524 | relative viability (A-427; first compound 1.265 µM): 0.416 | relative viability (A-427; first compound 4 µM): 0.283 | relative viability (COR-L 105; first compound 0.04 µM): 0.616 | relative viability (COR-L 105; first compound 0.1265 µM): 0.776 | relative viability (COR-L 105; first compound 0.4 µM): 0.531 | relative viability (COR-L 105; first compound 1.265 µM): 0.371 | relative viability (COR-L 105; first compound 4 µM): 0.316 | relative viability (ChaGo-K-1; first compound 0.04 µM): 0.627 | relative viability (ChaGo-K-1; first compound 0.1265 µM): 0.649 | relative viability (ChaGo-K-1; first compound 0.4 µM): 0.645 | relative viability (ChaGo-K-1; first compound 1.265 µM): 0.605 | relative viability (ChaGo-K-1; first compound 4 µM): 0.47 | relative viability (EKVX; first compound 0.04 µM): 0.714 | relative viability (EKVX; first compound 0.1265 µM): 0.719 | relative viability (EKVX; first compound 0.4 µM): 0.724 | relative viability (EKVX; first compound 4 µM): 0.535 | relative viability (EMC-BAC-2; first compound 0.04 µM): 0.361 | relative viability (EMC-BAC-2; first compound 0.1265 µM): 0.371 | relative viability (EMC-BAC-2; first compound 0.4 µM): 0.326 | relative viability (EMC-BAC-2; first compound 1.265 µM): 0.307 | relative viability (EMC-BAC-2; first compound 4 µM): 0.251 | relative viability (H3255; first compound 0.04 µM): 0.558 | relative viability (H3255; first compound 0.1265 µM): 0.538 | relative viability (H3255; first compound 0.4 µM): 0.643 | relative viability (H3255; first compound 4 µM): 0.432 | relative viability (HCC-366; first compound 0.04 µM): 1.02 | relative viability (HCC-366; first compound 0.1265 µM): 0.941 | relative viability (HCC-366; first compound 0.4 µM): 1.02 | relative viability (HCC-366; first compound 1.265 µM): 0.577 | relative viability (HCC-366; first compound 4 µM): 0.6 | relative viability (LK-2; first compound 0.04 µM): 0.173 | relative viability (LK-2; first compound 0.1265 µM): 0.189 | relative viability (LK-2; first compound 0.4 µM): 0.15 | relative viability (LK-2; first compound 1.265 µM): 0.173 | relative viability (LK-2; first compound 4 µM): 0.175 | relative viability (LOU-NH91; first compound 0.04 µM): 0.602 | relative viability (LOU-NH91; first compound 0.1265 µM): 0.635 | relative viability (LOU-NH91; first compound 0.4 µM): 0.615 | relative viability (LOU-NH91; first compound 1.265 µM): 0.442 | relative viability (LOU-NH91; first compound 4 µM): 0.451 | relative viability (NCI-H1563; first compound 0.04 µM): 0.715 | relative viability (NCI-H1563; first compound 0.1265 µM): 0.754 | relative viability (NCI-H1563; first compound 0.4 µM): 0.709 | relative viability (NCI-H1563; first compound 1.265 µM): 0.638 | relative viability (NCI-H1563; first compound 4 µM): 0.573 | relative viability (NCI-H1666; first compound 0.04 µM): 0.866 | relative viability (NCI-H1666; first compound 0.1265 µM): 0.859 | relative viability (NCI-H1666; first compound 0.4 µM): 0.692 | relative viability (NCI-H1666; first compound 1.265 µM): 0.605 | relative viability (NCI-H1666; first compound 4 µM): 0.532 | relative viability (NCI-H1734; first compound 0.04 µM): 0.59 | relative viability (NCI-H1734; first compound 0.1265 µM): 0.615 | relative viability (NCI-H1734; first compound 0.4 µM): 0.394 | relative viability (NCI-H1734; first compound 1.265 µM): 0.399 | relative viability (NCI-H1734; first compound 4 µM): 0.386 | relative viability (NCI-H1755; first compound 0.04 µM): 0.722 | relative viability (NCI-H1755; first compound 0.1265 µM): 0.731 | relative viability (NCI-H1755; first compound 0.4 µM): 0.677 | relative viability (NCI-H1755; first compound 1.265 µM): 0.686 | relative viability (NCI-H1755; first compound 4 µM): 0.434 | relative viability (NCI-H1792; first compound 0.04 µM): 0.809 | relative viability (NCI-H1792; first compound 0.1265 µM): 0.823 | relative viability (NCI-H1792; first compound 0.4 µM): 0.794 | relative viability (NCI-H1792; first compound 4 µM): 0.574 | relative viability (NCI-H1944; first compound 0.04 µM): 0.386 | relative viability (NCI-H1944; first compound 0.1265 µM): 0.391 | relative viability (NCI-H1944; first compound 0.4 µM): 0.422 | relative viability (NCI-H1944; first compound 1.265 µM): 0.297 | relative viability (NCI-H1944; first compound 4 µM): 0.251 | relative viability (NCI-H1975; first compound 0.04 µM): 0.711 | relative viability (NCI-H1975; first compound 0.1265 µM): 0.803 | relative viability (NCI-H1975; first compound 0.4 µM): 0.631 | relative viability (NCI-H1975; first compound 1.265 µM): 0.461 | relative viability (NCI-H1975; first compound 4 µM): 0.19 | relative viability (NCI-H2170; first compound 0.04 µM): 0.716 | relative viability (NCI-H2170; first compound 0.1265 µM): 0.764 | relative viability (NCI-H2170; first compound 0.4 µM): 0.721 | relative viability (NCI-H2170; first compound 1.265 µM): 0.238 | relative viability (NCI-H2170; first compound 4 µM): 0.601 | relative viability (NCI-H23; first compound 0.04 µM): 0.511 | relative viability (NCI-H23; first compound 0.1265 µM): 0.605 | relative viability (NCI-H23; first compound 0.4 µM): 0.615 | relative viability (NCI-H23; first compound 1.265 µM): 0.311 | relative viability (NCI-H23; first compound 4 µM): 0.238 | relative viability (NCI-H441; first compound 0.04 µM): 0.787 | relative viability (NCI-H441; first compound 0.1265 µM): 0.77 | relative viability (NCI-H441; first compound 0.4 µM): 0.848 | relative viability (NCI-H441; first compound 1.265 µM): 0.437 | relative viability (NCI-H441; first compound 4 µM): 0.421 | relative viability (NCI-H520; first compound 0.04 µM): 0.23 | relative viability (NCI-H520; first compound 0.1265 µM): 0.258 | relative viability (NCI-H520; first compound 0.4 µM): 0.236 | relative viability (NCI-H520; first compound 1.265 µM): 0.289 | relative viability (NCI-H520; first compound 4 µM): 0.221 | relative viability (NCI-H596; first compound 0.04 µM): 0.61 | relative viability (NCI-H596; first compound 0.1265 µM): 0.693 | relative viability (NCI-H596; first compound 0.4 µM): 0.729 | relative viability (NCI-H596; first compound 1.265 µM): 0.59 | relative viability (NCI-H596; first compound 4 µM): 0.393 | relative viability (PC-3 [JPC-3]; first compound 0.04 µM): 0.701 | relative viability (PC-3 [JPC-3]; first compound 0.1265 µM): 0.759 | relative viability (PC-3 [JPC-3]; first compound 0.4 µM): 0.721 | relative viability (PC-3 [JPC-3]; first compound 1.265 µM): 0.543 | relative viability (PC-3 [JPC-3]; first compound 4 µM): 0.577 | relative viability (SK-MES-1; first compound 0.04 µM): 0.603 | relative viability (SK-MES-1; first compound 0.1265 µM): 0.569 | relative viability (SK-MES-1; first compound 0.4 µM): 0.492 | relative viability (SK-MES-1; first compound 1.265 µM): 0.331 | relative viability (SK-MES-1; first compound 4 µM): 0.4 | relative viability (SW 900; first compound 0.04 µM): 0.505 | relative viability (SW 900; first compound 0.1265 µM): 0.646 | relative viability (SW 900; first compound 0.4 µM): 0.6 | relative viability (SW 900; first compound 1.265 µM): 0.57 | relative viability (SW 900; first compound 4 µM): 0.381
